From patent US5432165A, “Methods for the treatment of infection caused by Hepatitis B virus (HBV)” (priority 1992, dated 1995)
Where two headings read alike, the source gives them in different places.

How the values were obtained:
[1] = typical; read-out: cellular toxicity concentration (ID50); cited from earlier work
[2] = Stability in an acid environment; type: physicochemical; settings: such as is found in the human stomach
[3] = test system: CMV; settings: read-out: in vitro ED90; cited from earlier work
[4] = biological target: DNA polymerase enzyme of human hepatitis B virus (Hepatitis B virus genotype D subtype ayw, UniProt P03156); settings: read-out: concentration inhibiting DNA polymerase activity by 50 percent; cited from earlier work
Chain of DNA polymerase enzyme of human hepatitis B virus (P03156 whole entry): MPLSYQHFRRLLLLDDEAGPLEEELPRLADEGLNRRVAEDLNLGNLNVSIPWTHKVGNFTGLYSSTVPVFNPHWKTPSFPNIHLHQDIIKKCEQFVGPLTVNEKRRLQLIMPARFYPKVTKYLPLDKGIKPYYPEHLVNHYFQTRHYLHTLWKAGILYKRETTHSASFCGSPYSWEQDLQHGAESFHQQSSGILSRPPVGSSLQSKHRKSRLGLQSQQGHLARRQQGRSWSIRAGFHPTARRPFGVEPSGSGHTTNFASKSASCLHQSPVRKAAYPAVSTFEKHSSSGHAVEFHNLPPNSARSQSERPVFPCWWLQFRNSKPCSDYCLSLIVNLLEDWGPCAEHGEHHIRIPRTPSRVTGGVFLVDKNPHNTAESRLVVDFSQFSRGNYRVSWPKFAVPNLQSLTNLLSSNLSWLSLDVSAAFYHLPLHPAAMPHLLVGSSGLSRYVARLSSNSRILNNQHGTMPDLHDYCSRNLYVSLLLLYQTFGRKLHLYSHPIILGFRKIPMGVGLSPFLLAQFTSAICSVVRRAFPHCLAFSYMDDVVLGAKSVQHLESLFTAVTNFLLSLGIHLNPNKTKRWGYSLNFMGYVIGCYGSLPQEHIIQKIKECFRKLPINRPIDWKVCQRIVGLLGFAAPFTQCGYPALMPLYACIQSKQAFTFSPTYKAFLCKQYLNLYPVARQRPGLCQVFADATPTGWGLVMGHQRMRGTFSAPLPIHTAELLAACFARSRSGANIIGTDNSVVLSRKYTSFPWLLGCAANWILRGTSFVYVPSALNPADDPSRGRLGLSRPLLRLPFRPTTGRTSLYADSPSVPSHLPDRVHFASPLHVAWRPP

[5] = cited from earlier work
[6] = test system: HSV-1; settings: read-out: in vitro ED90; cited from earlier work
[7] = biological target: DNA polymerase enzyme of woodchuck hepatitis virus (Woodchuck hepatitis B virus, UniProt P03160); settings: read-out: concentration inhibiting DNA polymerase activity by 50 percent; cited from earlier work
Chain of DNA polymerase enzyme of woodchuck hepatitis virus (P03160 whole entry): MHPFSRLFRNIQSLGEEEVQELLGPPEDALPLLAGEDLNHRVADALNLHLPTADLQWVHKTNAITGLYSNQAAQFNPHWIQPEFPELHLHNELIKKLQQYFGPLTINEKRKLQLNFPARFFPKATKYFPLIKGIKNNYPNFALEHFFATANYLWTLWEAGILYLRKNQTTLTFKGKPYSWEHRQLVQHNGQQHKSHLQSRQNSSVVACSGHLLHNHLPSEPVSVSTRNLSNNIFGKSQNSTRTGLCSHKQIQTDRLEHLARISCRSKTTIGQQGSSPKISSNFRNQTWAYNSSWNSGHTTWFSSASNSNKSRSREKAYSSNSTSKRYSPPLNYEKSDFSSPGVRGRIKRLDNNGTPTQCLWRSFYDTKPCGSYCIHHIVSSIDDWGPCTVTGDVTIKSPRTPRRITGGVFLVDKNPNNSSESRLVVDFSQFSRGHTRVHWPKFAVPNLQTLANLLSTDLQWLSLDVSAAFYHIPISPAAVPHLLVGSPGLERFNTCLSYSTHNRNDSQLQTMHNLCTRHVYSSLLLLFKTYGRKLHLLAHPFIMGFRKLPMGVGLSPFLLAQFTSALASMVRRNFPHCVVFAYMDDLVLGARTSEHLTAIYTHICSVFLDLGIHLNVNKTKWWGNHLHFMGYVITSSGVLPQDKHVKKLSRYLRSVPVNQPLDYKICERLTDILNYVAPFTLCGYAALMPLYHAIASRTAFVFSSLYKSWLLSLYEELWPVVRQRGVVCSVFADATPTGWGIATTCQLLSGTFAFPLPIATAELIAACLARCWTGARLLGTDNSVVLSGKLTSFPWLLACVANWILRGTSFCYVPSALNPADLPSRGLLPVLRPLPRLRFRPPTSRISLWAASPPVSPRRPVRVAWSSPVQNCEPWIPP

[8] = test system: woodchuck hepatitis virus; settings: cited from earlier work
[9] = test system: hepatitis B virus; settings: cited from earlier work; for HBV markers after dosing was stopped: chronic HBV patients
[10] = Peak and trough plasma levels of FIAU and FAU by HPLC; type: in vivo, human; settings: in vivo
Source text: Additionally at Baseline, archive plasma samples were taken.

[11] = chronic type therapy at HBV DNA suppressive doses

Nc1nc(=O)n([C@@H]2O[C@H](CO)[C@@H](O)[C@@H]2F)cc1I [FIAC, 1-(2'-deoxy-2'-fluoro-β-D-arabinofuranosyl)-5-iodocytosine]
CC50 [1]: ~10000 nM | stability in an acid environment [2]: stable in an acid environment | EC90 [3]: ~500 nM | IC50 [4]: 50 to 100 nM | accumulation in the plasma ([5]; month long TID dosing of FIAC): neither FIAC, FIAU, or their metabolites accumulated in the plasma | absorption following oral administration ([5]; oral FIAC, patients): nearly completely absorbed | conversion of FIAC to FIAU ([5]; oral FIAC, patients): very rapidly converted to FIAU | FIAC in plasma two hours after dosing ([5]; oral FIAC): almost never detected | EC90 [6]: ~50 nM | IC50 [7]: 50 to 100 nM | suppression of viral polymerase and DNA ([8]; FIAC 20 mg/kg-day for 7 days): Rapid, complete and persistent suppression

Nc1ncnc2c1ncn2[C@@H]1O[C@H](CO)[C@@H](O)[C@@H]1O [ara-A]
HBV markers after dosing was stopped [9]: very rapidly rebounded to baseline levels and above | toxicity on continued administration [9, 11]: too toxic (persistent and severe neuromuscular pain)

interferon-alpha
patients with major and sustained decreases in HBV DNA ([9]; HBeAg positive chronic HBV infection, therapy for months): less than half of patients | patient population in which effective ([9]; reported): effective only in non-HIV infected patients with baseline entry serum HBV DNA levels less than 200 pg/ml

O=c1ccn([C@@H]2O[C@H](CO)[C@@H](O)[C@@H]2F)c(=O)[nH]1 [FAU, 1-(2'-deoxy-2'-fluoro-β-D-arabinofuranosyl)uracil]
FAU plasma values (rarely exceeded) ([10]; human, po, 1 mg/kg/day): ≤ 0.15 µg/mL | FAU plasma values after the initial dose [10]: almost always undetectable

Nc1ncnc2c1ncn2[C@@H]1O[C@H](COP(=O)(O)O)[C@@H](O)[C@@H]1O [ara-AMP]
HBV markers after dosing was stopped [9]: very rapidly rebounded to baseline levels and above | HBV markers after dosing was stopped ([9]; listed as Ara-AMP): rapid rebound of DNA levels to pretreatment levels after 10-28 days of therapy is the norm | toxicity on continued administration [9, 11]: intolerably toxic | toxicity on continued administration ([9]; human, in vivo): too toxic (persistent and severe neuromuscular pain) | suppression of viral DNA ([8]; similar dose given for 14 days): suppressed viral DNA but was followed by a rapid rebound to levels above baseline
